The record followed here is patent US9938265B2, “1,3,4-thiadiazole compounds and their use in treating cancer” (AstraZeneca AB, priority 2015, dated 2018).

Read-outs that look alike come from different tables or passages of the source.

In test [1] the target is GLS1 (Homo sapiens (Human), UniProt O94925). Briefly: GLS Enzyme Potency Assay (Glutamate Oxidase/AmplexRed coupled assay). Type of test: biochemical. The source says:
(§1) The following assays were used to measure the effects of the compounds described herein: a) GLS Enzyme Potency Assay; b) GLS Cell Potency Assay; c) GLS Cell Proliferation Assay. During the description of the assays, generally: • i. The following abbreviations have been used: CO2=Carbon dioxide; DMEM=Dulbecco's Modified Eagle Medium; DMSO=Dimethyl sulphoxide; EDTA=Ethylenediaminetetraacetic acid; EGTA=Ethylene glycol tetraacetic acid; FCS=Foetal calf serum; h=Hour(s); NBS=Non-binding surface; SDS=Sodium dodecyl sulphate; TRIS=Tris(Hydroxymethyl)aminomethane. • ii. IC50 values were calculated using a smart fitting model in Genedata.
Assay a): GLS Enzyme Potency Assay
A Glutamate Oxidase/AmplexRed coupled assay was used to measure the ability of compounds to bind to and inhibit the activity of GLS1 in vitro. […] GLS1 was diluted to 2× working concentration and incubated at room temperature to allow the tetrameric/dimeric forms to reach steady state. Assay measurements were performed in buffer comprising 50 mM TRIS pH 7.8, 100 mM NaPO4, pH 7.8, 0.001% v/v Tween20. Purified recombinant GLS1 protein was diluted in assay buffer to 12 nM and pre-incubated at room temperature for 30 minutes. […] DMSO concentration was maintained at 2% by back filling with DMSO solution. 3 μL of diluted GLS1 protein (12 nM) was then dispensed into each well using a BioRaptr automated dispenser (Beckman-Coulter) and incubated for 15 minutes at room temperature. 3 μL of 100 mM glutamine diluted in assay buffer was then added and the reaction incubated at room temperature for 60 minutes. […] An artefact version of the assay where the 6His tagged GLS protein and glutamine were replaced with assay buffer was also used to rule out non specific effects on the assay components.

Test [2] has as its target cellular GLS activity (Homo sapiens (Human), UniProt O94925). Briefly: GLS Cell Potency Assay (PC3 coupled assay measuring cellular glutamate depletion). The test is classed as cell-based. The note with it: PC3 cells, 6 h incubation, glutamate depletion; read-out: Assay b) GLS cell MOA Mean IC50.
Source text: as §1
Assay b): GLS Cell Potency Assay
Compounds were assessed for their potential to inhibit cellular GLS activity by use of a PC3 coupled assay measuring cellular glutamate depletion. […] DMSO concentration was maintained at 0.3% by back filling with DMSO solution. PC3 cells were grown in phenol free DMEM, 10% dialyzed FCS, 2 mM glutamine and following dispersal by trypsinisation were plated at 5.6×10^3 cells per well in 40 μl of growth medium directly into the 384 well assay plates containing dispensed compound. After incubation for 6 h at 37° C., 5% CO2 growth media was aspirated and cells lysed in 15 μl of buffer containing 10 mM TRIS pH7.4, 100 mM NaCl, 1 mM EDTA, 1 mM EGTA, 1 mM NaF, 20 mM Na4P2O7, 2 mM Na3VO4, 1% Triton X-100, 10% glycerol, 0.1% SDS and 0.5% deoxycholate.

The test system of test [3] is NCI-H1703 cells. Briefly: GLS Cell Proliferation Assay (NCI-H1703 cell proliferation). The test is classed as cell-based.
Source text: as §1
Assay c): GLS Cell Proliferation Assay
The ability of compounds to inhibit cell growth was measured using a 384 well plate NCI-H1703 cell proliferation assay. NCI-H1703 cells were grown in phenol red free RPMI1640, 10% FCS and 2 mM glutamine and seeded at a density of 750 cells per well in 40 μl of growth medium into clear-bottom 384 well assay plates (Corning product code 3712) and incubated for 24 h at 37° C., 5% CO2. Test compounds were prepared by dilution in 100% DMSO to give the correct dose range for 12 point concentration response and an appropriate volume (5-120 nl) dispensed directly into the assay plates containing plated cells. DMSO concentration was maintained at 0.3% by back filling with DMSO solution. Plates were incubated for 5 days at 37° C., 5% CO2, Sytox Green and Saponin added to final concentration of 2 μM and 0.25% respectively and incubated for 6 h prior to analysis. Plates were read on an Acumen eX3 (TTP Labtech) using 488 nm excitation and FITC filter set (500-530 nm) for emission. IC50 values were calculated by curve fitting to max inhibition of day zero growth using GeneData software analysis.

Setting [4] is: NCI-H1703 cells, 5 days; read-out: Assay c) Prolif Mean IC50.
Where [5] appears, read: 6His tagged GLS protein (amino acids 63-669), glutamine substrate; read-out: Assay a) enz IC50.
Where [6] appears, read: Homo sapiens, NCI-H1703, 120 h, NCI-H1703 cells, 5 days; read-out: Assay c) Prolif Mean IC50.

Chain of cellular GLS activity (O94925 73-669): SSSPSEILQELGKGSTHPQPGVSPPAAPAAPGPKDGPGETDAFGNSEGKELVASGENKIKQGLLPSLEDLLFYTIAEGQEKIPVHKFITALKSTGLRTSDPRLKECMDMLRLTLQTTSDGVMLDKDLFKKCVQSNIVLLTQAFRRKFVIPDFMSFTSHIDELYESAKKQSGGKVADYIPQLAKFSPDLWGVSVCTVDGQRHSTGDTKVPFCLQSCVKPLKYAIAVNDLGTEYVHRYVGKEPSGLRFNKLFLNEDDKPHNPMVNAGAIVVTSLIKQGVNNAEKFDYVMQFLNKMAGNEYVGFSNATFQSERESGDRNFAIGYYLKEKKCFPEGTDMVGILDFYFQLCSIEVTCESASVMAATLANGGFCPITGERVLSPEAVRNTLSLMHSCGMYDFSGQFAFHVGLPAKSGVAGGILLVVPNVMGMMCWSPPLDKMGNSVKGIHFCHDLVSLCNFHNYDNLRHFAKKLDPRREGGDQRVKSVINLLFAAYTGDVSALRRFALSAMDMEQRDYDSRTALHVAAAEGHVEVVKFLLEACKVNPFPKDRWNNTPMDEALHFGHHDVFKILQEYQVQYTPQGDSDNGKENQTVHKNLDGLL
Chain of GLS1 (O94925 63-669): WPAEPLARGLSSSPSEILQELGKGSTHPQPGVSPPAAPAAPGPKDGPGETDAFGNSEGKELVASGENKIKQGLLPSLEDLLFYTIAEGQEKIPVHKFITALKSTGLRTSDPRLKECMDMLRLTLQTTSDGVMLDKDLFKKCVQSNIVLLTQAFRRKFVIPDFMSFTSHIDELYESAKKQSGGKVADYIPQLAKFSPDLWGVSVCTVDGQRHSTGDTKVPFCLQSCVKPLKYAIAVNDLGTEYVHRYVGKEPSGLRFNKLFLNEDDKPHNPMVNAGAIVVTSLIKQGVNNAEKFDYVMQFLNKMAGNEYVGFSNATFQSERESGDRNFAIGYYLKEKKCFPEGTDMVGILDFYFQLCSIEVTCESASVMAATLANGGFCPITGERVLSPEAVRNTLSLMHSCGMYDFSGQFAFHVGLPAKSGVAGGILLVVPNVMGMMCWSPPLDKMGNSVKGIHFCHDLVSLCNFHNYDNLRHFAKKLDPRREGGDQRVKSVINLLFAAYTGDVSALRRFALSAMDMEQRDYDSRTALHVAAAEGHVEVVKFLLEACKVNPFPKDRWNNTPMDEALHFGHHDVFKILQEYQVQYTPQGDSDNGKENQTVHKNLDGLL

Take `CCO[C@H](C(=O)Nc1nnc(N[C@@H]2CCN(c3ccc(C)nn3)C2)s1)c1cccc(OC)c1` (single isomer, unassigned) [4(b)]: the IC50 in test [1] (read-out: Assay a) enz IC50) amounted to 290 nM; in test [2] it was 43.1 nM; in test [3] (setting [4]) it was 389 nM.
Regarding `CO[C@H](C(=O)Nc1nnc(N[C@@H]2CCN(c3ccc(C)nn3)C2)s1)c1ccc(F)cc1` (single isomer, unassigned) [5(b)], the half-maximal inhibitory concentration (IC50) in test [1] (read-out: Assay a) enz IC50) stood at 975 nM; in test [3] (setting [4]), 1020 nM.
As for `COc1cc([C@H](OC)C(=O)Nc2nnc(N[C@@H]3CCN(c4ccc(C)nn4)C3)s2)ccc1F` (single isomer, unassigned) [6(b)], in test [3] (setting [4]), the IC50 turned out to be 926 nM.
For `CO[C@H](C(=O)Nc1nnc(N[C@@H]2CCN(c3ccc(C)nn3)C2)s1)c1cccc(OC(F)(F)F)c1` (single isomer, unassigned) [7(b)], the figures for the IC50 in test [1] (read-out: Assay a) enz IC50), in test [2] and in test [3] (setting [4]) were 334 nM, 12.7 nM and 25.6 nM, respectively.
`CO[C@H](C(=O)Nc1nnc(N[C@@H]2CCN(c3ccc(C)nn3)C2)s1)c1cccc(OC(F)F)c1` (single isomer, unassigned) [8(a)]: the figures for the half-maximal inhibitory concentration (IC50) in test [1] (setting [5]), in test [2] and in test [3] (setting [4]) were 99.4 nM, 1.3 nM and 5.48 nM, respectively.
Take `CO[C@H](C(=O)Nc1nnc(N[C@@H]2CCN(c3ccc(C)nn3)C2)s1)c1cccc(OC(F)F)c1` (single isomer, unassigned) [8(b)]: the IC50 in test [1] (setting [5]) was 643 nM; in test [2], 22.1 nM; in test [3] (setting [4]), 117 nM.
Take `CO[C@H](C(=O)Nc1nnc(N[C@@H]2CCN(c3cc(C)cnn3)C2)s1)c1ccc(F)cc1` (single isomer, unassigned) [10(b)]: the IC50 in test [3] (setting [4]) amounted to 204 nM.
Take `COc1ccc([C@H](OC)C(=O)Nc2nnc(N[C@@H]3CCN(c4cc(Cl)cnn4)C3)s2)cc1` (single isomer, unassigned) [11(b)]: the IC50 in test [1] (read-out: Assay a) enz IC50) was 84.8 nM; in test [2], 10.5 nM; in test [3] (setting [4]), 129 nM.
Consider `COc1ccc([C@H](OC)C(=O)Nc2nnc(N[C@@H]3CCN(c4cc(C)cnn4)C3)s2)cc1` (single isomer, unassigned) [33(b)], for which the half-inhibitory concentration (IC50) in test [1] (setting [5]) amounted to 79.9 nM; in test [2] it was 2.35 nM; in test [3] (setting [4]), 37.9 nM.
The matching figures for `COc1cccc([C@H](OC)C(=O)Nc2nnc(N[C@@H]3CCN(c4ccc(C)nn4)C3)s2)c1` (single isomer, unassigned) [Example 1(a)]: 55.4 nM, 0.566 nM and 4.59 nM.
Consider `COc1cccc([C@H](OC)C(=O)Nc2nnc(N[C@@H]3CCN(c4ccc(C)nn4)C3)s2)c1` (single isomer, unassigned) [Example 1(b)], for which the results for the IC50 in test [1] (read-out: Assay a) enz IC50), in test [2] and in test [3] (setting [4]) were 406 nM, 137 nM and 454 nM, respectively.
For the molecule `CCO[C@H](C(=O)Nc1nnc(N[C@@H]2CCN(c3ccc(C)nn3)C2)s1)c1cccc(OC)c1` (single isomer, unassigned) [Example 4(a)], the IC50 amounted to 79.2 nM in test [1] (setting [5]), 0.457 nM in test [2] and 6.64 nM in test [3] (setting [4]).
With `CO[C@H](C(=O)Nc1nnc(N[C@@H]2CCN(c3ccc(C)nn3)C2)s1)c1ccc(F)cc1` (single isomer, unassigned) [Example 5(a)], the IC50 in test [1] (setting [5]) is 155 nM; in test [2], 2.78 nM; in test [3] (setting [4]), 44.1 nM.
On to `COc1cc([C@H](OC)C(=O)Nc2nnc(N[C@@H]3CCN(c4ccc(C)nn4)C3)s2)ccc1F` (single isomer, unassigned) [Example 6(a)], for which the IC50 in test [3] (setting [4]) amounted to 20.9 nM.
As to `CO[C@H](C(=O)Nc1nnc(N[C@@H]2CCN(c3ccc(C)nn3)C2)s1)c1cccc(OC(F)(F)F)c1` (single isomer, unassigned) [Example 7(a)], the IC50 in test [1] (setting [5]) was 95.2 nM; in test [2], 0.556 nM; in test [3] (setting [4]), 3.08 nM.
In the case of `CO[C@H](C(=O)Nc1nnc(N[C@@H]2CCN(c3cc(C)cnn3)C2)s1)c1ccc(F)cc1` (single isomer, unassigned) [Example 10(a)], the IC50 in test [3] (setting [4]) came to 1210 nM.
Regarding `COc1ccc([C@H](OC)C(=O)Nc2nnc(N[C@@H]3CCN(c4cc(Cl)cnn4)C3)s2)cc1` (single isomer, unassigned) [Example 11(a)], the IC50 in test [1] (setting [5]) amounted to 15.9 nM; in test [3] (setting [4]) it was 54.4 nM.
Turning to `CCOC(C(=O)Nc1nnc(N[C@@H]2CCN(c3ccc(C)nn3)C2)s1)c1ccc(OC)cc1` (single isomer, unassigned) [Example 15], the results for the IC50 in test [1] (setting [5]), in test [2] and in test [3] (setting [4]) were 277 nM, 34.8 nM and 567 nM, respectively.
Consider `CCOC(C(=O)Nc1nnc(N[C@@H]2CCN(c3ccc(C)nn3)C2)s1)c1ccc(OC)cc1` (single isomer, unassigned) [Example 16], for which the IC50 was determined as 80.9 nM in test [1] (setting [5]), 2.74 nM in test [2] and 55 nM in test [3] (setting [4]).
For `COC(C(=O)Nc1nnc(N[C@@H]2CCN(c3ccc(F)nn3)C2)s1)c1cccc(OC(F)(F)F)c1` (single isomer, unassigned) [Example 17] the same measures were 24.3 nM, 0.251 nM and 1.74 nM.
For `COC(C(=O)Nc1nnc(N[C@@H]2CCN(c3ccc(F)nn3)C2)s1)c1cccc(OC(F)(F)F)c1` (single isomer, unassigned) [Example 18], the IC50 stood at 65.3 nM in test [1] (setting [5]), 4.91 nM in test [2] and 16.8 nM in test [3] (setting [4]).
For `COC(C(=O)Nc1nnc(N[C@@H]2CCN(c3ccc(F)nn3)C2)s1)c1ccc(F)cc1` (single isomer, unassigned) [Example 19], the IC50 was 55.7 nM in test [1] (setting [5]), 4.7 nM in test [2] and 71.9 nM in test [3] (setting [4]).
As to `COC(C(=O)Nc1nnc(N[C@@H]2CCN(c3ccc(F)nn3)C2)s1)c1ccc(F)cc1` (single isomer, unassigned) [Example 20], the IC50 in test [1] (setting [5]) is 323 nM; in test [2] it was 79.5 nM; in test [3] (setting [4]), 1270 nM.
As to `CO[C@@H](C(=O)Nc1nnc(N[C@@H]2CCN(c3ccc(F)nn3)C2)s1)c1cccc(OC(F)F)c1` [9(b), (2R)-2-[3-(difluoromethoxy)phenyl]-N-[5-[[(3R)-1-(6-fluoropyridazin-3-yl)pyrrolidin-3-yl]amino]-1,3,4-thiadiazol-2-yl]-2-methoxy-acetamide], the half-maximal inhibitory concentration (IC50) in test [3] (setting [6]) came to 469 nM.
`COc1cccc([C@H](OC)C(=O)Nc2nnc(N[C@@H]3CCN(c4ccc(F)nn4)C3)s2)c1` [Example 3, (2S)-N-[5-[[(3R)-1-(6-Fluoropyridazin-3-yl)pyrrolidin-3-yl]amino]-1,3,4-thiadiazol-2-yl]-2-methoxy-2-(3-methoxyphenyl)acetamide]: the 50% inhibitory concentration (IC50) in test [3] (setting [6]) stood at 3.62 nM.
In the case of `CO[C@H](C(=O)Nc1nnc(N[C@@H]2CCN(c3ccc(F)nn3)C2)s1)c1cccc(OC(F)F)c1` [Example 9(a), (2S)-2-[3-(difluoromethoxy)phenyl]-N-[5-[[(3R)-1-(6-fluoropyridazin-3-yl)pyrrolidin-3-yl]amino]-1,3,4-thiadiazol-2-yl]-2-methoxy-acetamide], the IC50 in test [3] (setting [6]) came to 3.09 nM.
Turning to `COc1ccc(C(OC)C(=O)Nc2nnc(N[C@@H]3CCN(c4ccc(C)nn4)C3)s2)cc1` (stereo partly drawn) [Example 29, 2-methoxy-2-(4-methoxyphenyl)-N-[5-[[(3R)-1-(6-methylpyridazin-3-yl)pyrrolidin-3-yl]amino]-1,3,4-thiadiazol-2-yl]acetamide], the results for the IC50 in test [1] (setting [5]) and in test [3] (setting [4]) were 1280 nM and 586 nM, respectively.
